Assay results as given in patent US12570655B2, “Cysteine covalent modifiers of AKT1 and uses thereof” (Terremoto Biosciences, Inc., priority 2023, dated 2026).
Where two headings read alike, the source gives them in different places.

How the values were obtained:
Format in all cases: cell-based
[1] = test system: LAPC4 prostate cancer cells; assay: Antiproliferative effects in LAPC4 cells (CellTiter Glo); details: LAPC4 cells (AKT1 E17K allele), read-out: LAPC4 proliferation IC50
In short: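 Seed 1,000 cells/well in IMDM/12% FBS/1% P/S; add compound dilutions (DMSO); incubate 72 h; read intracellular ATP with CellTiter Glo; fit luminescence to log(inhibitor)-response Hill curve for IC50.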

AKT2 = target: T1, AKT2 (Homo sapiens, UniProt P31751); assay: Live cell AKT2 target engagement by NanoBRET competitive probe displacement; details: HEK293 cells transfected with kinase-NanoLuciferase fusion, 2 h at 37° C.
T1 construct: expressed in transfected cells; host or cells: HEK293
In short: (§1)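 IC50 reflects displacement of a fluorescent ATP-competitive tracer, dosed near its EC50, from kinase–NanoLuciferase fusions in live HEK293 cells. Cells were incubated with compound and tracer for 2 h at 37 °C, then E600/E460 BRET was read.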

AKT1 WT = target: T2, AKT1 WT (Homo sapiens, UniProt P31749); assay: Live cell AKT1 WT target engagement by NanoBRET competitive probe displacement; details: HEK293 cells transfected with kinase-NanoLuciferase fusion, 2 h at 37° C.
T2 construct: expressed in transfected cells; host or cells: HEK293
In short: as §1

AKT1 E17K = target: T3, AKT1 E17K (Homo sapiens, UniProt P31749, E17K); assay: Live cell AKT1 E17K target engagement by NanoBRET competitive probe displacement; details: HEK293 cells transfected with kinase-NanoLuciferase fusion, 2 h at 37° C.
T3 construct: expressed in transfected cells; host or cells: HEK293
In short: as §1

T3 sequence (P31749 whole entry E17K, the tested form may be a part): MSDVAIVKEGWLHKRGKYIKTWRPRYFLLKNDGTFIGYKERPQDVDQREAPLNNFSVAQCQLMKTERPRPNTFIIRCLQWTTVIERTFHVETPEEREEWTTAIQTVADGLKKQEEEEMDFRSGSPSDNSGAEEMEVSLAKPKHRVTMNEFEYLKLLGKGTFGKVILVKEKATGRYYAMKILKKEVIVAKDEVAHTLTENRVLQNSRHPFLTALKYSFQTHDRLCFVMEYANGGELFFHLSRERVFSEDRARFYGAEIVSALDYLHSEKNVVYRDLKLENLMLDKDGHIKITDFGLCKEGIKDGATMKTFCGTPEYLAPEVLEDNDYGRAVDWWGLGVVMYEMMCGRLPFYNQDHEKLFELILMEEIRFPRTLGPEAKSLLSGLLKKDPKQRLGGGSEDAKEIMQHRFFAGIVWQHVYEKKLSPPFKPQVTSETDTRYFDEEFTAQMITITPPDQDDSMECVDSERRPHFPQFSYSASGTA
T1 sequence (P31751 whole entry, the tested form may be a part): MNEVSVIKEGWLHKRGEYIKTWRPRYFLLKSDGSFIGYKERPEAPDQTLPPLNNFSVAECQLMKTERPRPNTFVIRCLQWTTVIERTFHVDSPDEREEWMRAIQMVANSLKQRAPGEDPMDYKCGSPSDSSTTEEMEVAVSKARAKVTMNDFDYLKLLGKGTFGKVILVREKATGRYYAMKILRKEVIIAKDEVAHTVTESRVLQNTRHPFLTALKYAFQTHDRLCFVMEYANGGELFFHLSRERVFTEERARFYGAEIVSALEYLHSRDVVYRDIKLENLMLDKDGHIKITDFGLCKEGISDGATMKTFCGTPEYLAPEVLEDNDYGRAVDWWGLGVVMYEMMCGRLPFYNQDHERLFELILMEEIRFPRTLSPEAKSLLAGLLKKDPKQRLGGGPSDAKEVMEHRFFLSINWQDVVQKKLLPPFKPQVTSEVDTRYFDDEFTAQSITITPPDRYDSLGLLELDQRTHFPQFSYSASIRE
T2 sequence (P31749 whole entry, the tested form may be a part): as the sequence (P31749 whole entry E17K, the tested form may be a part) above, with K17E counted along it

SMILES | IC50 ([1]; 72 h) [µM] | IC50 (AKT2) [µM] | IC50 (AKT1 WT) [µM] | IC50 (AKT1 E17K) [µM] | IC50 ([1]; Homo sapiens, LAPC4, 72 h) [µM]
C=CC(=O)N1CCC(N[C@H]2CCc3cc(-n4c(-c5cccnc5N)nc5ccc(-n6cccn6)nc54)ccc32)C[C@H]1COC (single isomer, unassigned) [Example 129, 1-[(2S,4*)-4-{[(1S)-5-[2-(2-aminopyridin-3-yl)-5-(pyrazol-1-yl)imidazo[4,5-b]pyridin-3-yl]-2,3-dihydro-1H-inden-1-yl]amino}-2-(methoxymethyl)piperidin-1-yl]prop-2-en-1-one] | > 10 | 2.72 | 0.115 | > 1 | –
C=CC(=O)N1CCC(N[C@H]2CCc3cc(-n4c(-c5cccnc5N)nc5ccc(-n6cccn6)nc54)ccc32)C[C@H]1COC (single isomer, unassigned) [Example 130, 1-[(2S,4*)-4-{[(1S)-5-[2-(2-aminopyridin-3-yl)-5-(pyrazol-1-yl)imidazo[4,5-b]pyridin-3-yl]-2,3-dihydro-1H-inden-1-yl]amino}-2-(methoxymethyl)piperidin-1-yl]prop-2-en-1-one] | 0.174 | 0.672 | 0.0265 | 0.0764 | –
C=CC(=O)N1CC2CC[C@@H]1CC2N[C@H]1CCc2cc(-n3c(-c4cccnc4N)nc4ccc(-n5cccn5)nc43)ccc21 (single isomer, unassigned) [Example 131, 1-[(1R,4R,5*)-5-{[(1S)-5-[2-(2-aminopyridin-3-yl)-5-(pyrazol-1-yl)imidazo[4,5-b]pyridin-3-yl]-2,3-dihydro-1H-inden-1-yl]amino}-2-azabicyclo[2.2.2]octan-2-yl]prop-2-en-1-one] | – | 9.53 | > 1 | > 1 | 1.84
C=CC(=O)N1CC2CC[C@@H]1CC2N[C@H]1CCc2cc(-n3c(-c4cccnc4N)nc4ccc(-n5cccn5)nc43)ccc21 (single isomer, unassigned) [Example 132, 1-[(1R,4R,5*)-5-{[(1S)-5-[2-(2-aminopyridin-3-yl)-5-(pyrazol-1-yl)imidazo[4,5-b]pyridin-3-yl]-2,3-dihydro-1H-inden-1-yl]amino}-2-azabicyclo[2.2.2]octan-2-yl]prop-2-en-1-one] | 1.51 | 2.25 | 0.0975 | 0.326 | –
C=CC(=O)N1CC2CC[C@H]1CC2N[C@H]1CCc2cc(-n3c(-c4cccnc4N)nc4ccc(-n5cccn5)nc43)ccc21 (single isomer, unassigned) [Example 133, 1-[(1S,4S,5*)-5-{[(1S)-5-[2-(2-aminopyridin-3-yl)-5-(pyrazol-1-yl)imidazo[4,5-b]pyridin-3-yl]-2,3-dihydro-1H-inden-1-yl]amino}-2-azabicyclo[2.2.2]octan-2-yl]prop-2-en-1-one] | 0.0163 | 0.047 | 0.00971 | 0.0134 | –
C=CC(=O)N1CC2CC[C@H]1CC2N[C@H]1CCc2cc(-n3c(-c4cccnc4N)nc4ccc(-n5cccn5)nc43)ccc21 (single isomer, unassigned) [Example 134, 1-[(1S,4S,5*)-5-{[(1S)-5-[2-(2-aminopyridin-3-yl)-5-(pyrazol-1-yl)imidazo[4,5-b]pyridin-3-yl]-2,3-dihydro-1H-inden-1-yl]amino}-2-azabicyclo[2.2.2]octan-2-yl]prop-2-en-1-one] | 1.15 | 2.71 | 0.0724 | 0.232 | –
C=CC(=O)N1C[C@@H]2C[C@H]1CC2N[C@H]1CCc2cc(-n3c(-c4cccnc4N)nc4ccc(-n5cccn5)nc43)ccc21 (single isomer, unassigned) [Example 135, 1-[(1S,4S,5*)-5-{[(1S)-5-[2-(2-aminopyridin-3-yl)-5-(pyrazol-1-yl)imidazo[4,5-b]pyridin-3-yl]-2,3-dihydro-1H-inden-1-yl]amino}-2-azabicyclo[2.2.1]heptan-2-yl]prop-2-en-1-one] | – | 0.478 | 0.0222 | 0.152 | 0.302
C=CC(=O)N1C[C@@H]2C[C@H]1CC2N[C@H]1CCc2cc(-n3c(-c4cccnc4N)nc4ccc(-n5cccn5)nc43)ccc21 (single isomer, unassigned) [Example 136, 1-[(1S,4S,5*)-5-{[(1S)-5-[2-(2-aminopyridin-3-yl)-5-(pyrazol-1-yl)imidazo[4,5-b]pyridin-3-yl]-2,3-dihydro-1H-inden-1-yl]amino}-2-azabicyclo[2.2.1]heptan-2-yl]prop-2-en-1-one] | 0.52 | 1.95 | 0.0958 | 0.211 | –
C=CC(=O)N1C[C@H]2C[C@@H]1CC2N[C@H]1CCc2cc(-n3c(-c4cccnc4N)nc4ccc(-n5cccn5)nc43)ccc21 (single isomer, unassigned) [Example 137, 1-[(1R,4R,5*)-5-{[(1S)-5-[2-(2-aminopyridin-3-yl)-5-(pyrazol-1-yl)imidazo[4,5-b]pyridin-3-yl]-2,3-dihydro-1H-inden-1-yl]amino}-2-azabicyclo[2.2.1]heptan-2-yl]prop-2-en-1-one] | 0.161 | 0.244 | 0.0142 | 0.0716 | –
C=CC(=O)N1C[C@H]2C[C@@H]1CC2N[C@H]1CCc2cc(-n3c(-c4cccnc4N)nc4ccc(-n5cccn5)nc43)ccc21 (single isomer, unassigned) [Example 138, 1-[(1R,4R,5*)-5-{[(1S)-5-[2-(2-aminopyridin-3-yl)-5-(pyrazol-1-yl)imidazo[4,5-b]pyridin-3-yl]-2,3-dihydro-1H-inden-1-yl]amino}-2-azabicyclo[2.2.1]heptan-2-yl]prop-2-en-1-one] | 0.963 | 1.81 | 0.289 | 0.744 | –
C=CC(=O)N1CCC(N[C@H]2CCc3cc(-n4c(-c5cccnc5N)nc5ccc(-n6cccn6)nc54)ccc32)C(O)C1 (single isomer, unassigned) [Example 139, 1-[(3*,4*)-4-{[(1S)-5-[2-(2-aminopyridin-3-yl)-5-(pyrazol-1-yl)imidazo[4,5-b]pyridin-3-yl]-2,3-dihydro-1H-inden-1-yl]amino}-3-hydroxypiperidin-1-yl]prop-2-en-1-one] | 0.0419 | 0.114 | 0.0135 | 0.0297 | –
C=CC(=O)N1CCC(N[C@H]2CCc3cc(-n4c(-c5cccnc5N)nc5ccc(-n6cccn6)nc54)ccc32)C(O)C1 (single isomer, unassigned) [Example 140, 1-[(3*,4*)-4-{[(1S)-5-[2-(2-aminopyridin-3-yl)-5-(pyrazol-1-yl)imidazo[4,5-b]pyridin-3-yl]-2,3-dihydro-1H-inden-1-yl]amino}-3-hydroxypiperidin-1-yl]prop-2-en-1-one] | 1.49 | 3.58 | 0.37 | > 1 | –
C=CC(=O)N1CCC(N[C@H]2CCc3cc(-n4c(-c5cccnc5N)nc5ccc(-n6cccn6)nc54)ccc32)C(O)C1 (single isomer, unassigned) [Example 141, 1-[(3*,4*)-4-{[(1S)-5-[2-(2-aminopyridin-3-yl)-5-(pyrazol-1-yl)imidazo[4,5-b]pyridin-3-yl]-2,3-dihydro-1H-inden-1-yl]amino}-3-hydroxypiperidin-1-yl]prop-2-en-1-one] | 1.7 | 0.872 | 0.148 | 0.554 | –
C=CC(=O)N1CCC(N[C@H]2CCc3cc(-n4c(-c5cccnc5N)nc5ccc(-n6cccn6)nc54)ccc32)C(O)C1 (single isomer, unassigned) [Example 142, 1-[(3*,4*)-4-{[(1S)-5-[2-(2-aminopyridin-3-yl)-5-(pyrazol-1-yl)imidazo[4,5-b]pyridin-3-yl]-2,3-dihydro-1H-inden-1-yl]amino}-3-hydroxypiperidin-1-yl]prop-2-en-1-one] | 3.46 | > 10 | > 1 | > 1 | –
C=CC(=O)N1CCC(N[C@@H]2c3ccc(-n4c(-c5cccnc5N)nc5ccc(-n6cccn6)nc54)cc3CC2F)C[C@H]1C (single isomer, unassigned) [Example 143, 1-((2R,4*)-4-(((1R,2*)-5-(2-(2-aminopyridin-3-yl)-5-(1H-pyrazol-1-yl)-3H-imidazo[4,5-b]pyridin-3-yl)-2-fluoro-2,3-dihydro-1H-inden-1-yl)amino)-2-methylpiperidin-1-yl)prop-2-en-1-one] | – | 1.26 | 0.0602 | 0.353 | 0.499
C=CC(=O)N1CCC(N[C@@H]2c3ccc(-n4c(-c5cccnc5N)nc5ccc(-n6cccn6)nc54)cc3CC2F)C[C@H]1C (single isomer, unassigned) [Example 144, 1-((2R,4*)-4-(((1R,2*)-5-(2-(2-aminopyridin-3-yl)-5-(1H-pyrazol-1-yl)-3H-imidazo[4,5-b]pyridin-3-yl)-2-fluoro-2,3-dihydro-1H-inden-1-yl)amino)-2-methylpiperidin-1-yl)prop-2-en-1-one] | 0.293 | 1.18 | 0.026 | 0.0741 | –
C=CC(=O)N1CCC(N[C@@H]2c3ccc(-n4c(-c5cccnc5N)nc5ccc(-n6cccn6)nc54)cc3CC2F)C[C@H]1C (single isomer, unassigned) [Example 145, 1-((2R,4*)-4-(((1R,2*)-5-(2-(2-aminopyridin-3-yl)-5-(1H-pyrazol-1-yl)-3H-imidazo[4,5-b]pyridin-3-yl)-2-fluoro-2,3-dihydro-1H-inden-1-yl)amino)-2-methylpiperidin-1-yl)prop-2-en-1-one] | 0.436 | 1.03 | 0.0297 | 0.187 | –
